US8415505B2, “2-methylene-5-substituted-methylenecyclopentanone derivatives and use thereof” (Shenyang Pharmaceutical University, priority 2008, dated 2013)
Like-named read-outs stand apart in the source and are kept apart here.

Experiments:
[1] = test system: Human breast cancer cells T47D; assay: In vitro antitumor activity test (MTT), T47D; assay type: cell-based; details: 4 days culture with drug, growth inhibition, read-out: IC50 (μmol/L) T47D
Experimental: (§1) In Vitro Antitumor Activity Test
(§2) Cells were taken out carefully from liquid nitrogen (Frozen pipes), and the cell freezing medium was thawed rapidly in water bath at 37° C. in order to rapidly pass the temperature range of 0˜5° C. within which the cell is easily damaged. Cell suspension was sucked with pipette gun and put it into centrifuge tubes under a sterile condition, then centrifuged for 3 min at 1300 r/min. The supernatant was gently discarded, and then added with a fresh medium to pipette and mix the cells. Finally, the cells were transferred into culture flasks and cultured in a carbon dioxide incubator. The medium was changed once after 24 h.
(§3) Human prostate cancer cells (DU145, PC-3) were cultured in RPMI1640 medium containing 10% fetal bovine serum inactivated by heating, 100 IU/mL penicillin, 100 μg/mL streptomycin and 1 mmol/L L-glutamine. Human breast cancer cells (T47D, MDA-MB231) were cultured in RPMI1640 medium containing 10% fetal bovine serum inactivated by heating, 5 μg/mL insulin, 100 IU/mL penicillin, 100 μg/mL streptomycin, and 1 mmol/L L-glutamine. Human breast cancer cells (MCF-7) were cultured in DMEM culture medium containing 10% fetal bovine serum inactivated by heating, 5 μg/mL insulin, 100 IU/mL penicillin, 100 μg/mL streptomycin and […] L-glutamine. Mouse Lewis lung carcinoma cells (LL/2) and mouse melanoma cells (B16F0) were cultured in DMEM culture medium containing 10% fetal bovine serum inactivated by heating, 4.5 g/L glucose, 1.5 g/L NaHCO3, 100 IU/mL penicillin, 100 μg/mL streptomycin and 4 mmol/L L-glutamine. All of the above cell lines were incubated in 37° C. incubator with 5% carbon dioxide saturated humidity
(§4) After 2-3 cycles of cell culture and passage after the cell thawing, the cells were stable and ready for the experiment. The flask bottom should be covered with cells in each cell passage.
(§5) Trypsin solution (0.25%) was applied to digest the cells off the flask bottom when the flask bottom was covered with cells. The digested cell solution was moved to the centrifuge tubes and culture medium was added to stop the digestion; centrifuged for 3 min at 1300 r/min conditions; gently discarded the supernatant, and then added 5 mL medium, pipetted and mixed the cells; added 10 μL of the cell suspension to the cell count plate to count; adjusted the cell concentration to 2×10^4/mL; added 100 μL cell suspension to all wells of the 96 well plate except A1 well which acts as a blank; and placed the 96 well plate in an incubator to culture 24 h and to make sure the cells growing and attached on the wells.
(§6) First formulated the medicine in 16 mmol/L of DMSO storage solution; then diluted the solution with ethanol to 1.6 mmol/L solution; then further diluted with cell culture medium to 32 μmol/L, 16 μmol/L, 8 μmol/L, 4 μmol/L, 2 μmol/L and 1 μmol/L, and added to 96 well plate; 100 μl drug solution were added to each well, thus the final drug concentrations of cells were 16 μmol/L, 8 μmol/L, 4 μmol/L, 2 μmol/L, 1 μmol/L, and 0.5 μmol/L; 3 parallel wells were set for each concentration and placed the 96 well plate was placed into an incubator to continuously culture for 4 days
(§7) Added to each well of the 96 well plate with 50 μL of MTT (2 mg/mL); discarded the MTT (tetrazolium) solution after 4 h incubation in an incubator, then added 200 μL of DMSO; shaking the 96 well plate in a magnetic shaker for 10 min to make sure that the reaction product of the living cells and the MTT, i.e. formazan, was fully dissolved; measured the absorbance value (OD) in microplate reader at the selected 570 nm wavelength, and recorded results. Using the OD values of the cells that were not added with drugs as control, the cell growth inhibition ratio at each test concentration was calculated by using the following formula. Herein, the cancer cell growth inhibition is expressed as the half of the growth inhibitory concentration (IG50 Value) (i.e., the tested drug concentration resulting in 50% cell growth inhibition). […]

[2] = test system: Human breast cancer cells MDA-MB231; assay: In vitro antitumor activity test (MTT), MDA-MB231; assay type: cell-based; details: 4 days culture with drug, growth inhibition, read-out: IC50 (μmol/L) MDA-MB231
Experimental: as §1, §2, §3, §4, §5, §6, §7

[3] = test system: Human prostate cancer cells PC-3; assay: In vitro antitumor activity test (MTT), PC-3; assay type: cell-based; details: 96 h, PC-3 cells, 4 days culture with drug, growth inhibition, read-out: IC50 (μmol/L) PC-3
Experimental: as §1
as §2, with “h. […]” for “h.”
(§8) After 2-3 cycles of cell culture and passage after the cell thawing, the cells were stable and ready for the experiment. […]
(§9) Added to each well of the 96 well plate with 50 μL of MTT (2 mg/mL); discarded the MTT (tetrazolium) solution after 4 h incubation in an incubator, then added 200 μL of DMSO; shaking the 96 well plate in a magnetic shaker for 10 min to make sure that the reaction product of the living cells and the MTT, i.e. formazan, was fully dissolved; measured the absorbance value (OD) in microplate reader at the selected 570 nm wavelength, and recorded results. […]

[4] = test system: Human breast cancer cells MCF-7; assay: In vitro antitumor activity test (MTT), MCF-7; assay type: cell-based; details: MCF7, 96 h, MCF-7 cells, 4 days culture with drug, growth inhibition, read-out: IC50 (μmol/L) MCF-7
Experimental: as §1
as §2, with “h. […]” for “h.”
as §8, §9

[5] = test system: Human prostate cancer cells DU145; assay: In vitro antitumor activity test (MTT), DU145; assay type: cell-based; details: DU-145, 96 h, 4 days culture with drug, growth inhibition, read-out: IC50 (μmol/L) DU145
Experimental: as §1
as §2, with “h. […]” for “h.”
as §8, §9

[6] = test system: Mouse Lewis lung carcinoma cells (LL/2); assay: In vitro antitumor activity test (MTT), LL/2; assay type: cell-based; details: 96 h, LL/2 cells, 4 days culture with drug, growth inhibition, read-out: IC50 (μmol/L) LL/2
Experimental: as §1
as §2, with “h. […]” for “h.”
as §8, §9

[7] = test system: mouse melanoma cells (B16F0); assay: In vitro antitumor activity test (MTT), B16F0; assay type: cell-based; details: B16F0, 96 h, B16FD cells (head), 4 days culture with drug, growth inhibition, read-out: IC50 (μmol/L) B16FD
Experimental: as §1
as §2, with “h. […]” for “h.”
as §8, §9

Acute toxicity test = details: both sexes, mouse, in vivo, ip; Kunming mice, intraperitoneal injection, observed one week after administration, weighted regression method
Experimental: Animals: healthy Kunming mice, half male and half female, weighed 18-22 g. Animals were provided from Experimental Animal Center of Shenyang Pharmaceutical University. Certificate of Conformity: Real co-Zi Liao No. 033
Name of tested drugs: Example 13, Example 14
Drug preparation: Suspension formulated with 0.2% polysorbate 80 (Tween-80). Dosage to subject is expressed as mg/kg.
Route of administration: Intraperitoneal injection; injection volume was 0.1 ml/10 g, with one time multi-dose administration.
Test cycle and measurement: Observed one week after the administration; recorded toxic reactions in mice daily during observation, with the death of mice as the main indicator. Half lethal dose (LD50, mg/kg) of the administration of compound after a week can be obtained according to weighted regression method.

## C=C1CCC(=CCC(C)C)C1=O [Example 22, 2-methylene-5-(3-methylbutylidene)cyclopentanone]
[1]; Homo sapiens, 96 h
  IC50: > 16 µmol/L
[2]; Homo sapiens, MDA-MB-231, 96 h
  IC50: > 16 µmol/L

## C=C1CCC(=Cc2cccc(OC)c2OC)C1=O [Example 15, 2-methylene-5-(2,3-dimethoxybenzylidene)cyclopentanone]
[1]; Homo sapiens, 96 h
  IC50: > 16 µmol/L
[2]; Homo sapiens, MDA-MB-231, 96 h
  IC50: > 16 µmol/L

## C=C1CCC(=Cc2cc(OC)c(OC)c(OC)c2)C1=O [Example 21, 2-methylene-5-(3,4,5-trimethoxybenzylidene)cyclopentanone]
[1]; Homo sapiens, 96 h
  IC50: 2.76 µmol/L
[2]; Homo sapiens, MDA-MB-231, 96 h
  IC50: 7.84 µmol/L

## C=C1CCC(=Cc2ccc3c(c2)OCO3)C1=O [Example 18, 2-methylene-5-(3,4-methylenedioxybenzylidene)cyclopentanone]
[1]; Homo sapiens, 96 h
  IC50: 4.89 µmol/L
[2]; Homo sapiens, MDA-MB-231, 96 h
  IC50: 6.68 µmol/L

## C=C1CCC(=Cc2ccccc2OC)C1=O [Example 7, 2-methylene-5-(2-methoxybenzylidene)cyclopentanone]
[1]; Homo sapiens, 96 h
  IC50: 3.93 µmol/L
[2]; Homo sapiens, MDA-MB-231, 96 h
  IC50: 11.6 µmol/L

## C=C1CCC(=Cc2ccc(OC)cc2OC)C1=O [Example 16, 2-methylene-5-(2,4-dimethoxybenzylidene)cyclopentanone]
[1]; Homo sapiens, 96 h
  IC50: > 16 µmol/L
[2]; Homo sapiens, MDA-MB-231, 96 h
  IC50: 7.51 µmol/L

## C=C1CCC(=Cc2ccc(OC)c(O)c2)C1=O [Example 13, 2-methylene-5-(3-hydroxy-4-methoxybenzylidene)cyclopentanone]
[1]; Homo sapiens, 96 h
  IC50: 0.64 µmol/L
[2]; Homo sapiens, MDA-MB-231, 96 h
  IC50: 2.53 µmol/L
[3]
  IC50: 2.01 µmol/L
[4]
  IC50: 1.21 µmol/L
[5]
  IC50: 2.95 µmol/L
[6]
  IC50: 5.09 µmol/L
[7]
  IC50: 3.42 µmol/L
Acute toxicity test
  LD50 at 1 week: 22.4 mg/kg

## C=C1CCC(=Cc2ccc(OC)cc2O)C1=O [Example 12, 2-methylene-5-(2-hydroxy-4-methoxybenzylidene)cyclopentanone]
[1]; Homo sapiens, 96 h
  IC50: 1.29 µmol/L
[2]; Homo sapiens, MDA-MB-231, 96 h
  IC50: 4.68 µmol/L

## C=C1CCC(=Cc2ccc(O)cc2)C1=O [Example 23, 2-methylene-5-(4-hydroxybenzylidene)cyclopentanone]
[1]; Homo sapiens, 96 h
  IC50: > 16 µmol/L
[2]; Homo sapiens, MDA-MB-231, 96 h
  IC50: 5.96 µmol/L

## C=C1CCC(=C(c2ccc(C)cc2)c2ccc(C)cc2)C1=O [Example 26, 2-methylene-5-[bis(4-methylphenyl)-methylene]cyclopentanone]
[1]; Homo sapiens, 96 h
  IC50: 4.36 µmol/L
[2]; Homo sapiens, MDA-MB-231, 96 h
  IC50: 7.49 µmol/L

## C=C1CCC(=C(c2ccccc2)c2ccccc2)C1=O [Example 25, 2-methylene-5-diphenylmethylenecyclopentanone]
[1]; Homo sapiens, 96 h
  IC50: 7.23 µmol/L
[2]; Homo sapiens, MDA-MB-231, 96 h
  IC50: > 16 µmol/L

## C=C1CCC(=Cc2ccc(N(C)C)cc2)C1=O [Example 11, 2-methylene-5-(4-N,N-dimethylbenzylidene)cyclopentanone]
[1]
  IC50: 1.4 µmol/L
[2]
  IC50: 8.58 µmol/L

## C=C1CCC(=Cc2ccccc2O)C1=O [Example 24, 2-methylene-5-(2-hydroxybenzylidene)cyclopentanone]
[1]; Homo sapiens, 96 h
  IC50: 5.02 µmol/L
[2]; Homo sapiens, MDA-MB-231, 96 h
  IC50: 5.54 µmol/L

## C=C1CCC(=Cc2ccc(O)c(OC)c2)C1=O [Example 14, 2-methylene-5-(4-hydroxy-3-methoxybenzylidene)cyclopentanone]
[1]; Homo sapiens, 96 h
  IC50: 0.98 µmol/L
[2]; Homo sapiens, MDA-MB-231, 96 h
  IC50: 3.21 µmol/L
[3]
  IC50: 1.76 µmol/L
[4]
  IC50: 1.05 µmol/L
[5]
  IC50: 2.43 µmol/L
[6]
  IC50: 6.39 µmol/L
[7]
  IC50: 4.4 µmol/L
Acute toxicity test
  LD50 at 1 week: 35.2 mg/kg

## C=C1CCC(=Cc2ccc(OC)c(OC)c2)C1=O [Example 17, 2-methylene-5-(3,4-dimethoxybenzylidene)cyclopentanone]
[1]; Homo sapiens, 96 h
  IC50: 2.66 µmol/L
[2]; Homo sapiens, MDA-MB-231, 96 h
  IC50: 2.57 µmol/L

## C=C1CCC(=Cc2ccc(OC)cc2)C1=O [Example 2, 2-methylene-5-(4-methoxybenzylidene)-cyclopentanone]
[1]; Homo sapiens, 96 h
  IC50: > 16 µmol/L
[2]; Homo sapiens, MDA-MB-231, 96 h
  IC50: > 16 µmol/L

## C=C1CCC(=Cc2cc(OC)c(O)c(OC)c2)C1=O [Example 19, 2-methylene-5-(3,5-dimethoxy-4-hydroxybenzylidene) cyclopentanone]
[1]; Homo sapiens, 96 h
  IC50: 2.82 µmol/L
[2]; Homo sapiens, MDA-MB-231, 96 h
  IC50: 3.44 µmol/L

## C=C1CCC(=Cc2ccc(OCC)cc2)C1=O [Example 8, 2-methylene-5-(4-ethoxybenzylidene)cyclopentanone]
[1]; Homo sapiens, 96 h
  IC50: 6.37 µmol/L
[2]; Homo sapiens, MDA-MB-231, 96 h
  IC50: 4.57 µmol/L

## C=C1CCC(=Cc2ccc(S(C)(=O)=O)cc2)C1=O [Example 10, 2-methylene-5-(4-methanesulfonylbenzylidene)cyclopentanone]
[1]; Homo sapiens, 96 h
  IC50: 1.64 µmol/L
[2]; Homo sapiens, MDA-MB-231, 96 h
  IC50: 4.96 µmol/L

## C=C1CCC(=Cc2cc(C(C)(C)C)c(O)c(C(C)(C)C)c2)C1=O [Example 20, 2-methylene-5-[3,5-di(t-butyl)-4-hydroxybenzylidene]-cyclopentanone]
[1]; Homo sapiens, 96 h
  IC50: 5.31 µmol/L
[2]; Homo sapiens, MDA-MB-231, 96 h
  IC50: 14.8 µmol/L

## C=C1CCC(=Cc2ccc(OCCC)cc2)C1=O [Example 9, 2-methylene-5-(4-propoxybenzylidene)cyclopentanone]
[1]; Homo sapiens, 96 h
  IC50: > 16 µmol/L
[2]; Homo sapiens, MDA-MB-231, 96 h
  IC50: > 16 µmol/L

## C=C1CCC(=C(c2ccc(F)cc2)c2ccc(F)cc2)C1=O [Example 27, 2-methene-5-[bis(4-fluorophenyl)-methylene]cyclopentanone]
[2]
  IC50: > 16 µmol/L
